# Experimental data: patent US9321764B2, “Dihydro-pyrrolopyridinone inhibitors” (AbbVie Inc., priority 2013, dated 2016)
# Experiments:
# [1] = target: T1, BRD4 (BDII_E352-M457) (Homo sapiens, UniProt O60885); assay: TR-FRET bromodomain binding assay, second bromodomain of BRD4; conditions: His-tagged BD2, 30 nM Alexa647 probe; TR-FRET protocol A-E given per row
# T1 construct: proliferation; Protocol; made in house
# Method in brief: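 His-tagged BRD4 BD2 ([…]) competed against an Alexa647-labelled BET-inhibitor probe in TR-FRET. Buffer was 20 mM sodium phosphate pH 6.0, 50 mM NaCl, 1 mM EDTA, 0.01% Triton X-100, 1 mM DTT, with method D DMSO series of 2.5 mM–800 nM (stock range). IC50 from 4-parameter fit, Ki from probe Kd and concentration.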
# [2] = test system: breast cancer cell line MX-1; assay: MX-1 cell line proliferation assay; type: cell-based; conditions: Homo sapiens, MX1, 72 h, MX-1 cells, 3-day proliferation assay, Cell Titer Glo; read-out: Cellular proliferation EC50
# Method in brief: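 Final compound concentrations spanned 0.0001 to 3 μM, added to 5000 cells/well plated the previous night in RPMI 1640 plus 10% FBS at 37 °C.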
# [3] = target: T2, BRD4 (BDI_K57-E168) (Homo sapiens, UniProt O60885); assay: TR-FRET bromodomain binding assay, first bromodomain of BRD4; conditions: His-tagged BD1, 100 nM Alexa647 probe; TR-FRET protocol A-E given per row
# T2 construct: BD1: amino acids K57-E168; made in house
# Method in brief: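 Ki values come from IC50s (4-parameter logistic) corrected for probe Kd and concentration, normalised to no-compound and 1 μM unlabelled probe controls. Probe displacement by TR-FRET used 8 nM BD1 (K57-E168), 100 nM Alexa647 probe, 1 nM Eu-anti-His, 20 mM phosphate pH 6.0, 2% DMSO, 1 h, room temperature.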
SMILES,Ki [1] [µM],EC50 [2] [µM],Ki [3] [µM]
"Cn1cc(-c2cc(CS(C)(=O)=O)ccc2Nc2ccc(F)cc2)c2cc[nH]c(=O)c21 [Example 121, 3-{2-[(4-fluorophenyl)amino]-5-[(methylsulfonyl)methyl]phenyl}-1-methyl-1,6-dihydro-7H-pyrrolo[2,3-c]pyridin-7-one]",0.079,0.04,0.012
"Cn1cc(-c2cc(S(C)(=O)=O)ccc2OC2CCOC2)c2cc[nH]c(=O)c21 (stereo not drawn) [Example 22, 1-methyl-3-[5-(methylsulfonyl)-2-(tetrahydrofuran-3-yloxy)phenyl]-1,6-dihydro-7H-pyrrolo[2,3-c]pyridin-7-one]",0.12,0.384,0.015
"CCS(=O)(=O)Nc1ccc(Oc2ccc(F)cc2F)c(-c2cn(C)c3c(=O)[nH]c(C(=O)NCC4CCOC4)cc23)c1 (stereo not drawn) [Example 199, 3-{2-(2,4-difluorophenoxy)-5-[(ethylsulfonyl)amino]phenyl}-1-methyl-7-oxo-N-(tetrahydrofuran-3-ylmethyl)-6,7-dihydro-1H-pyrrolo[2,3-c]pyridine-5-carboxamide]",0.0065,0.0368,0.00363
"Cc1cccnc1CNc1ccc(Oc2ccc(F)cc2F)c(-c2cn(C)c3c(=O)[nH]ccc23)c1 [Example 169, 3-[2-(2,4-difluorophenoxy)-5-{[(3-methylpyridin-2-yl)methyl]amino}phenyl]-1-methyl-1,6-dihydro-7H-pyrrolo[2,3-c]pyridin-7-one]",0.107,0.132,0.0265
"Cn1cc(-c2cc(CS(C)(=O)=O)ccc2Oc2ccc(F)cc2F)c2cc(Cl)[nH]c(=O)c21 [Example 91, 5-chloro-3-{2-(2,4-difluorophenoxy)-5-[(methylsulfonyl)methyl]phenyl}-1-methyl-1,6-dihydro-7H-pyrrolo[2,3-c]pyridin-7-one]",0.0095,0.008,0.0054
"Cn1cc(-c2cc(S(C)(=O)=O)ccc2NCC2C[C@@H]3CC[C@H]2C3)c2cc[nH]c(=O)c21 (stereo partly drawn) [Example 71, 3-[2-{[(1S,4R)-bicyclo[2.2.1]hept-2-ylmethyl]amino}-5-(methylsulfonyl)phenyl]-1-methyl-1,6-dihydro-7H-pyrrolo[2,3-c]pyridin-7-one]",0.285,0.255,0.197
"CCS(=O)(=O)Nc1ccc(Oc2ccc(F)cc2F)c(-c2cn(C)c3c(=O)[nH]c(C(=O)NCCN(C)C)cc23)c1 [Example 188, 3-{2-(2,4-difluorophenoxy)-5-[(ethylsulfonyl)amino]phenyl}-N-[2-(dimethylamino)ethyl]-1-methyl-7-oxo-6,7-dihydro-1H-pyrrolo[2,3-c]pyridine-5-carboxamide]",0.0135,0.0299,0.00142
"CCS(=O)(=O)Nc1ccc(O[C@H]2CC[C@@H](OC)CC2)c(-c2cn(C)c3c(=O)[nH]ccc23)c1 [Example 9, N-{4-[(cis-4-methoxycyclohexyl)oxy]-3-(1-methyl-7-oxo-6,7-dihydro-1H-pyrrolo[2,3-c]pyridin-3-yl)phenyl}ethanesulfonamide]",0.029,0.128,0.012
"Cc1ccc(CS(=O)(=O)NCc2ccc(Oc3ccc(F)cc3F)c(-c3cn(C)c4c(=O)[nH]ccc34)c2)cc1 [Example 132, N-[4-(2,4-difluorophenoxy)-3-(1-methyl-7-oxo-6,7-dihydro-1H-pyrrolo[2,3-c]pyridin-3-yl)benzyl]-1-(4-methylphenyl)methanesulfonamide]",1.24,0.658,0.249
"CN(C)S(=O)(=O)Cc1ccc(Oc2ccc(F)cc2F)c(-c2cn(C)c3c(=O)[nH]ccc23)c1 [Example 101, 1-[4-(2,4-difluorophenoxy)-3-(1-methyl-7-oxo-6,7-dihydro-1H-pyrrolo[2,3-c]pyridin-3-yl)phenyl]-N,N-dimethylmethanesulfonamide]",0.0025,0.005,0.0022
"Cn1cc(-c2cc(S(C)(=O)=O)ccc2OCCC(C)(C)C)c2cc[nH]c(=O)c21 [Example 40, 3-[2-(3,3-dimethylbutoxy)-5-(methylsulfonyl)phenyl]-1-methyl-1,6-dihydro-7H-pyrrolo[2,3-c]pyridin-7-one]",0.064,0.087,0.023
"Cn1cc(-c2cc(S(C)(=O)=O)ccc2NCc2ccc(C#N)cc2)c2cc[nH]c(=O)c21 [Example 46, 4-({[2-(1-methyl-7-oxo-6,7-dihydro-1H-pyrrolo[2,3-c]pyridin-3-yl)-4-(methylsulfonyl)phenyl]amino}methyl)benzonitrile]",1.09,0.479,0.205
"CCS(=O)(=O)Nc1ccc(O[C@H]2CC[C@H](OC)CC2)c(-c2cn(C)c3c(=O)[nH]ccc23)c1 [Example 6, N-{4-[(trans-4-methoxycyclohexyl)oxy]-3-(1-methyl-7-oxo-6,7-dihydro-1H-pyrrolo[2,3-c]pyridin-3-yl)phenyl}ethanesulfonamide]",0.057,0.036,0.0028
"CCS(=O)(=O)c1ccc(Oc2ccc(F)cc2F)c(-c2cn(C)c3c(=O)[nH]ccc23)c1 [Example 49, 3-[2-(2,4-difluorophenoxy)-5-(ethylsulfonyl)phenyl]-1-methyl-1,6-dihydro-7H-pyrrolo[2,3-c]pyridin-7-one]",0.024,0.052,0.013
"Cn1cc(-c2cc(S(C)(=O)=O)ccc2OCC2CCC2)c2cc[nH]c(=O)c21 [Example 28, 3-[2-(cyclobutylmethoxy)-5-(methylsulfonyl)phenyl]-1-methyl-1,6-dihydro-7H-pyrrolo[2,3-c]pyridin-7-one]",0.053,0.129,0.0093
"Cn1cc(-c2cc(S(C)(=O)=O)ccc2O[C@H]2CC[C@@H](O)CC2)c2cc[nH]c(=O)c21 [Example 33, 3-{2-[(cis-4-hydroxycyclohexyl)oxy]-5-(methylsulfonyl)phenyl}-1-methyl-1,6-dihydro-7H-pyrrolo[2,3-c]pyridin-7-one]",0.274,0.716,0.034
"Cn1cc(-c2cc(CCl)ccc2Oc2ccc(F)cc2F)c2cc[nH]c(=O)c21 [Example 120, 3-[5-(chloromethyl)-2-(2,4-difluorophenoxy)phenyl]-1-methyl-1,6-dihydro-7H-pyrrolo[2,3-c]pyridin-7-one]",0.208,0.306,0.077
"Cn1cc(-c2cc(NCc3ccccc3C#N)ccc2Oc2ccc(F)cc2F)c2cc[nH]c(=O)c21 [Example 178, 2-({[4-(2,4-difluorophenoxy)-3-(1-methyl-7-oxo-6,7-dihydro-1H-pyrrolo[2,3-c]pyridin-3-yl)phenyl]amino}methyl)benzonitrile]",0.239,0.233,0.0308
"CCS(=O)(=O)Nc1ccc(Oc2ccc(F)cc2F)c(-c2cn(C)c3c(=O)[nH]c(C(=O)NCc4cccnc4)cc23)c1 [Example 192, 3-{2-(2,4-difluorophenoxy)-5-[(ethylsulfonyl)amino]phenyl}-1-methyl-7-oxo-N-(pyridin-3-ylmethyl)-6,7-dihydro-1H-pyrrolo[2,3-c]pyridine-5-carboxamide]",0.0013,0.0107,0.0009
"CC(=O)N1CCC(Oc2ccc(S(C)(=O)=O)cc2-c2cn(C)c3c(=O)[nH]ccc23)CC1 [Example 67, 3-{2-[(1-acetylpiperidin-4-yl)oxy]-5-(methylsulfonyl)phenyl}-1-methyl-1,6-dihydro-7H-pyrrolo[2,3-c]pyridin-7-one]",1.38,> 3,0.045
"Cn1cc(-c2cc(CNCc3ccoc3)ccc2Oc2ccc(F)cc2F)c2cc[nH]c(=O)c21 [Example 127, 3-[2-(2,4-difluorophenoxy)-5-{[(furan-3-ylmethyl)amino]methyl}phenyl]-1-methyl-1,6-dihydro-7H-pyrrolo[2,3-c]pyridin-7-one]",0.476,0.947,0.619
"Cn1cc(-c2cc(CNCc3c[nH]cn3)ccc2Oc2ccc(F)cc2F)c2cc[nH]c(=O)c21 [Example 119, 3-[2-(2,4-difluorophenoxy)-5-{[(1H-imidazol-4-ylmethyl)amino]methyl}phenyl]-1-methyl-1,6-dihydro-7H-pyrrolo[2,3-c]pyridin-7-one]",0.478,> 3,0.599
"CCS(=O)(=O)Nc1ccc(Oc2ccc(F)cc2F)c(-c2cn(C)c3c(=O)[nH]c(C4CCN(C(=O)C5CC5)CC4)cc23)c1 [Example 185, N-[3-{5-[1-(cyclopropylcarbonyl)piperidin-4-yl]-1-methyl-7-oxo-6,7-dihydro-1H-pyrrolo[2,3-c]pyridin-3-yl}-4-(2,4-difluorophenoxy)phenyl]ethanesulfonamide]",0.00794,0.0614,0.00429
"CCS(=O)(=O)Nc1ccc(OC2COC2)c(-c2cn(C)c3c(=O)[nH]ccc23)c1 [Example 10, N-[3-(1-methyl-7-oxo-6,7-dihydro-1H-pyrrolo[2,3-c]pyridin-3-yl)-4-(oxetan-3-yloxy)phenyl]ethanesulfonamide]",0.142,0.225,0.018
